System: 883617-216-R-J1-PDC tumor spheroids, viability
Assay: Anticancer human tumor 883617-216-R-J1-PDC patient-derived bladder carcinoma cell line growth inhibition [PI3K]
Settings: spheroids with HUVEC and MSC; for IC50: curve of first compound; for viability, T/C: stronger effect = lower value
In short: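 Tumor cells were combined with HUVEC and MSCs into spheroids, then dosed with PI3K-inhibitor combinations over half-log ranges capped near clinical Cmax or 10 microM.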

[1] = second compound 0.0316 µM, first compound 0.0316 µM
[2] = second compound 0.0316 µM, first compound 0.1 µM
[3] = second compound 0.0316 µM, first compound 0.316 µM
[4] = second compound 0.0316 µM, first compound 1 µM
[5] = second compound 0.0316 µM, first compound 3.16 µM
[6] = second compound 0.0316 µM, first compound 10 µM
[7] = second compound 0.1 µM, first compound 0.0316 µM
[8] = second compound 0.1 µM, first compound 0.1 µM
[9] = second compound 0.1 µM, first compound 0.316 µM
[10] = second compound 0.1 µM, first compound 1 µM
[11] = second compound 0.1 µM, first compound 3.16 µM
[12] = second compound 0.1 µM, first compound 10 µM
[13] = second compound 0.316 µM, first compound 0.0316 µM
[14] = second compound 0.316 µM, first compound 0.1 µM
[15] = second compound 0.316 µM, first compound 0.316 µM
[16] = second compound 0.316 µM, first compound 1 µM
[17] = second compound 0.316 µM, first compound 3.16 µM
[18] = second compound 0.316 µM, first compound 10 µM
[19] = second compound 1 µM, first compound 0.0316 µM
[20] = second compound 1 µM, first compound 0.1 µM
[21] = second compound 1 µM, first compound 0.316 µM
[22] = second compound 1 µM, first compound 1 µM
[23] = second compound 1 µM, first compound 3.16 µM
[24] = second compound 1 µM, first compound 10 µM
[25] = second compound 3.16 µM, first compound 0.0316 µM
[26] = second compound 3.16 µM, first compound 0.1 µM
[27] = second compound 3.16 µM, first compound 0.316 µM
[28] = second compound 3.16 µM, first compound 1 µM
[29] = second compound 3.16 µM, first compound 3.16 µM
[30] = second compound 3.16 µM, first compound 10 µM
[31] = second compound 10 µM, first compound 0.0316 µM
[32] = second compound 10 µM, first compound 0.1 µM
[33] = second compound 10 µM, first compound 0.316 µM
[34] = second compound 10 µM, first compound 1 µM
[35] = second compound 10 µM, first compound 3.16 µM
[36] = second compound 10 µM, first compound 10 µM
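Note: spheroids exposed to agents for 7 days before the viability read.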

SMILES: CC1(C)CCC(CN2CCN(c3ccc(C(=O)NS(=O)(=O)c4ccc(NCC5CCOCC5)c([N+](=O)[O-])c4)c(Oc4cnc5[nH]ccc5c4)c3)CC2)=C(c2ccc(Cl)cc2)C1 + Cc1nc(NC(=O)N2CCCC2C(N)=O)sc1-c1ccnc(C(C)(C)C(F)(F)F)c1
- IC50 (second compound 0.0316 µM): 5.05 µM
- IC50 (second compound 0.1 µM): 4.46 µM
- IC50 (second compound 0.316 µM): < 0.0316 µM
- IC50 (second compound 1 µM): < 0.0316 µM
- IC50 (second compound 3.16 µM): < 0.0316 µM
- IC50 (second compound 10 µM): < 0.0316 µM
- viability, T/C [1]: 85.3%
- viability, T/C [2]: 84%
- viability, T/C [3]: 87.7%
- viability, T/C [4]: 81.2%
- viability, T/C [5]: 81.8%
- viability, T/C [6]: 3.63%
- viability, T/C [7]: 66.6%
- viability, T/C [8]: 66.1%
- viability, T/C [9]: 79.5%
- viability, T/C [10]: 67.3%
- viability, T/C [11]: 71.3%
- viability, T/C [12]: 3.02%
- viability, T/C [13]: 47.4%
- viability, T/C [14]: 45%
- viability, T/C [15]: 51.2%
- viability, T/C [16]: 52.6%
- viability, T/C [17]: 44.5%
- viability, T/C [18]: 4.5%
- viability, T/C [19]: 41.3%
- viability, T/C [20]: 28.9%
- viability, T/C [21]: 29.4%
- viability, T/C [22]: 33.2%
- viability, T/C [23]: 30.7%
- viability, T/C [24]: 3.44%
- viability, T/C [25]: 14.8%
- viability, T/C [26]: 14.4%
- viability, T/C [27]: 17.1%
- viability, T/C [28]: 14.3%
- viability, T/C [29]: 14.7%
- viability, T/C [30]: 2.57%
- viability, T/C [31]: 7.93%
- viability, T/C [32]: 12.9%
- viability, T/C [33]: 7.45%
- viability, T/C [34]: 8.13%
- viability, T/C [35]: 7.77%
- viability, T/C [36]: 1.74%

SMILES: C[C@@H](NC(=O)c1ncnc(N)c1Cl)c1ncc(C(=O)Nc2cc(C(F)(F)F)c(Cl)cn2)s1 + Cc1nc(NC(=O)N2CCCC2C(N)=O)sc1-c1ccnc(C(C)(C)C(F)(F)F)c1
- IC50 (second compound 0.0316 µM): > 10 µM
- IC50 (second compound 0.1 µM): > 10 µM
- IC50 (second compound 0.316 µM): 2 µM
- IC50 (second compound 1 µM): < 0.0316 µM
- IC50 (second compound 3.16 µM): < 0.0316 µM
- IC50 (second compound 10 µM): < 0.0316 µM
- viability, T/C [1]: 89.3%
- viability, T/C [2]: 91.5%
- viability, T/C [3]: 94.9%
- viability, T/C [4]: 85.2%
- viability, T/C [5]: 82.1%
- viability, T/C [6]: 58%
- viability, T/C [7]: 69%
- viability, T/C [8]: 74.2%
- viability, T/C [9]: 73.3%
- viability, T/C [10]: 73%
- viability, T/C [11]: 75.1%
- viability, T/C [12]: 57.7%
- viability, T/C [13]: 48.3%
- viability, T/C [14]: 52.6%
- viability, T/C [15]: 49.7%
- viability, T/C [16]: 53.8%
- viability, T/C [17]: 48.8%
- viability, T/C [18]: 37.9%
- viability, T/C [19]: 29.6%
- viability, T/C [20]: 33.4%
- viability, T/C [21]: 29.2%
- viability, T/C [22]: 33%
- viability, T/C [23]: 24.9%
- viability, T/C [24]: 24.4%
- viability, T/C [25]: 15.3%
- viability, T/C [26]: 14.3%
- viability, T/C [27]: 16.9%
- viability, T/C [28]: 15.7%
- viability, T/C [29]: 16.6%
- viability, T/C [30]: 12.1%
- viability, T/C [31]: 9.78%
- viability, T/C [32]: 8.18%
- viability, T/C [33]: 11.9%
- viability, T/C [34]: 8.65%
- viability, T/C [35]: 7.27%
- viability, T/C [36]: 3.76%

From PubChem BioAssay AID1963973 (Molecular Pharmacology Branch, DTP, NCI, 2024)
